From US20250332266A1, “COMPOUNDS FOR THE DEGRADATION OF EGFR KINASE” (BeiGene Switzerland GmbH, priority 2022, published 2025)
Where two headings read alike, the source gives them in different places.

Key:
[1] = amide bond, 15-membered ring, 25.0 °C
[2] = biological target: T1, EGFR L858R (BaF3-L858R) (Homo sapiens, UniProt P00533, L858R); test: EGFR degradation, HTRF total-EGFR assay, BaF3-L858R cells; assay type: cell-based; conditions: 16 h treatment
T1 construct: host or cells: BaF3
Protocol: BaF3-L858R (abbv. L858R) cell were purchased from Kangyuan Bochuang Biotechnology (Beijing) Co., Ltd.
(§1) H1975-#8 and BaF3-L858R cells are treated with compounds diluted in 0.1% DMSO cell culture medium on day 2, incubate for 16 h, 37° C., 5% CO2. the final concentration of compounds in all assay starts with 10 uM, 5-fold dilution, total 8 doses were included.
(§2) Total-EGFR cellular kit (64NG1PEH) were used for evaluating EGFR degradation.
(§3) After 16 h treatment, for H1975-#8 cells, add 100 μL HTRF 1× lysis buffer to each well; for BaF3-L858R cells, add 20 μL 4× lysis buffer to each well; seal the plate and incubate 1 hour at room temperature on a plate shaker; Once the cells are lysed, 16 μL of cell lysate are transferred to a PE 384-well HTRF detection plate; 4 μL of pre-mixed HTRF antibodies are added to each well; cover the plate with a plate sealer, spin 1000 rpm for 1 min, incubate overnight at room temperature; read on BMG PheraStar with HTRF protocol (337 nm-665 nm-620 nm).
(§4) The inhibition (degradation) percentage of the compound was calculated by the following equation:
(§5) Inhibition percentage of Compound=100−100×(Signal−low control)/(High control−low control), wherein signal=each test compound group
(§6) High control=Cell group with added DMSO and without compound, indicating microplate readings without EGFR degradation.
(§7) Imax (Dmax) is the maximum percentage of inhibition (degradation).
(§8) The IC50 (DC50) value of a compound can be obtained by fitting the following equation
(§9) Wherein, X and Y are known values, and IC50, Hillslope, Top and Bottom are the parameters obtained by fitting with software. Y is the inhibition percentage (calculated from the equation), X is the concentration of the compound; IC50 is the concentration of the compound when the 50% inhibition is reached. The smaller the IC50 value is, the stronger the inhibitory ability of the compound is. Vice versa, the higher the IC50 value is, the weaker the ability the inhibitory ability of the compound is; Hillslope represents the slope of the fitted curve, generally around 1*; Bottom represents the minimum value of the curve obtained by data fitting, which is generally 0%±20%; Top represents the maximum value of the curve obtained by data fitting, which is generally 100%±20%. The experimental data were fitted by calculating and analyzing with Dotmatics data analysis software.

[3] = biological target: T2, EGFR L858R/C797S (H1975-clone #8) (Homo sapiens, UniProt P00533, C797S/L858R); test: EGFR degradation, HTRF total-EGFR assay, H1975-clone #8 (L858R/C797S); assay type: cell-based; conditions: 16 h treatment
T2 construct: expressed in transfected cells; host or cells: H1975 (clone #8), lentiviral transduction, endogenous EGFR knocked out
Protocol: H1975-clone #8 (L858R/C797S): EGFR-L858R/C797S were stably expressed in H1975 cell lines by lentivirus-mediated over-expression, respectively. The EGFR over-expressed cells then underwent knockout, in which the EGFR targeting sgRNA was designed to only target the endogenous EGFR copies and preserve the exogenous EGFR copies. Followed by the knockout, the edited H1975 cells were seeded in 96 well plates at the concentration of 1 cell/well, cultured for about 2 weeks to allow single clones formation. The formed clones were screened by DNA sequencing and whole exon sequencing analysis for the desired edition. H1975-clone #8 were finally confirmed as homozygous L858R/C797S EGFR clones.
as §1, §2, §3, §4, §5, §6, §7, §8, §9

T1 sequence (P00533 25-1210 L858R): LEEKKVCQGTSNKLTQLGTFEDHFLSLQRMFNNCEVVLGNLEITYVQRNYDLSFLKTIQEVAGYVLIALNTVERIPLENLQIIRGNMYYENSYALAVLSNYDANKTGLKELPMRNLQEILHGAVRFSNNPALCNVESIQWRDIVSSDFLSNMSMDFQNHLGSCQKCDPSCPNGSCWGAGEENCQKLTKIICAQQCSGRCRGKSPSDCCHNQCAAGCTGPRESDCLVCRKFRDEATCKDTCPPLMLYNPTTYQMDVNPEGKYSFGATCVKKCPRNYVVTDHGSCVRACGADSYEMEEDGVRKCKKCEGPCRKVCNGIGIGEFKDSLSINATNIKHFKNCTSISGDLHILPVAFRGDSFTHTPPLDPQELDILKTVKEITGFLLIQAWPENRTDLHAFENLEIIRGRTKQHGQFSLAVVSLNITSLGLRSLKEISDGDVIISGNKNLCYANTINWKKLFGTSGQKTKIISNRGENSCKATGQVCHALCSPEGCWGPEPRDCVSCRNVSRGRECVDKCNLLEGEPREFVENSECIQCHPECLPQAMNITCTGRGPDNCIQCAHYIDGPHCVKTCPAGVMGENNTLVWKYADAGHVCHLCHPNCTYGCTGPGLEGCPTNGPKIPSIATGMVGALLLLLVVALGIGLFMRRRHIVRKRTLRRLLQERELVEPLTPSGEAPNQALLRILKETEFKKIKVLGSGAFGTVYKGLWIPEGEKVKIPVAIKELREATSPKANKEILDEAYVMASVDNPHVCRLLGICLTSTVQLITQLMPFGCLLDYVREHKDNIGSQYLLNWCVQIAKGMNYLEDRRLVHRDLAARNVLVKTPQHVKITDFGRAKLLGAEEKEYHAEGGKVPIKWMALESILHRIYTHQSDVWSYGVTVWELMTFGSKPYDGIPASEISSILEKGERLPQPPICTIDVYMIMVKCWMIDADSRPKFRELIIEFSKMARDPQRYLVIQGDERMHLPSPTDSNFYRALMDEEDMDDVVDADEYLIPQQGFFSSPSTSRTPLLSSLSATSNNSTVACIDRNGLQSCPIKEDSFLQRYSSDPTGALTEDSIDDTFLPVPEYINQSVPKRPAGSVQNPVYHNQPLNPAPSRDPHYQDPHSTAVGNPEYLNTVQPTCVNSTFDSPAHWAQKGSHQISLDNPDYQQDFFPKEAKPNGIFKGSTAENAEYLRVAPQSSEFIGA
T2 sequence (P00533 25-1210 C797S/L858R): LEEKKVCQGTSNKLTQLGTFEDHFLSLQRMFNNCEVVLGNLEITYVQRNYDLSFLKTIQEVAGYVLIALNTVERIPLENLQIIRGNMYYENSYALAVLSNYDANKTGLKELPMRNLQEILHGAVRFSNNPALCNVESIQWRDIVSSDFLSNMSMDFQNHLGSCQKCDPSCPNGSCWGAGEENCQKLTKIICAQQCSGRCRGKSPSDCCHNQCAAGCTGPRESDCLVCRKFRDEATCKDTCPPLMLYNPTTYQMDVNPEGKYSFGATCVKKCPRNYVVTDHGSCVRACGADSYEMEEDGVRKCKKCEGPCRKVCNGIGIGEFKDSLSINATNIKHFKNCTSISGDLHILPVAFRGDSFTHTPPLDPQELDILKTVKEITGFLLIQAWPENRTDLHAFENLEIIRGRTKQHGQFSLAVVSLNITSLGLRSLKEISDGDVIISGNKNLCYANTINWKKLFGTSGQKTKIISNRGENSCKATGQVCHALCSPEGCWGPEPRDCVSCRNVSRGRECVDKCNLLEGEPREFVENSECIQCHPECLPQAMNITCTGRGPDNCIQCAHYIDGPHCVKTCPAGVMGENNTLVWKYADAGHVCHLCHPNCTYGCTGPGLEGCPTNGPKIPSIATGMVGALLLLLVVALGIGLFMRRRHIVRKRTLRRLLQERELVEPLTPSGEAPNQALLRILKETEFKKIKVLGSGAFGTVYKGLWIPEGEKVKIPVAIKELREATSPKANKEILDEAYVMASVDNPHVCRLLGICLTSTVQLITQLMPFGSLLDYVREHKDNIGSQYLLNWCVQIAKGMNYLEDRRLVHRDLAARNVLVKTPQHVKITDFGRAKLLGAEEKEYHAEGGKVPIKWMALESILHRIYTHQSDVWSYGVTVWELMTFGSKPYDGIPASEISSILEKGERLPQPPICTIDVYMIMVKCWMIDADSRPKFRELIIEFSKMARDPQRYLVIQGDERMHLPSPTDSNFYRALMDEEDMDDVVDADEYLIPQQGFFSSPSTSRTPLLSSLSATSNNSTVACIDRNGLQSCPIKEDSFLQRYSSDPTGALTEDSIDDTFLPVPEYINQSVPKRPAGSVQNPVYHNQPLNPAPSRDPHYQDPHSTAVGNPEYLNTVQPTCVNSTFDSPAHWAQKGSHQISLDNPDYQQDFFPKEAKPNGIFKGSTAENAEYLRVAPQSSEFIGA

Structure (SMILES)	DC50 [2]	Dmax [2]	further results
COC(=O)c1cc(C)nc(-c2cnn(C)c2OCC2CC(Cn3c(=N)[nH]c4ccc(Br)cc43)C2)c1 (stereo not shown)	–	–	ring closure, isolated yield ([1]; the molecule shown is the open-chain precursor, LiHMDS, THF, 116.0 mM): 74.7%
Cc1cc(C(=O)O)cc(-c2cnn(C)c2OCC2CC(Cn3c(=N)[nH]c4ccc(CN5CCN(C(=O)OC(C)(C)C)CC5)cc43)C2)n1 (stereo not shown)	–	–	ring closure, isolated yield ([1]; the molecule shown is the open-chain precursor, HATU/DIEA, DMF, 70.0 mM): 50.1%
Cc1cc2cc(n1)-c1cnn(C)c1OCC1CC(C1)Cn1c(nc3ccc(N4CCN(C(=O)OC(C)(C)C)CC4=O)cc31)NC2=O	–	–	ring closure, isolated yield ([1]; from Cc1cc(C(=O)O)cc(-c2cnn(C)c2OCC2CC(Cn3c(N)nc4ccc(N5CCN(C(=O)OC(C)(C)C)CC5=O)cc43)C2)n1, HATU/DIEA, DCM, 34.0 mM): 51.6%
CCc1nc(C2CCC(=O)NC2=O)ccc1N1CCC(N2CCN(c3ccc4c(c3)N3C[C@H]5C[C@@H](COc6c(cnn6C)-c6cc(cc(C)n6)C(=O)/N=C/3N4)C5)CC2)CC1 (stereo partly shown) [Example 140, 3-(5-(4-(4-((7^1s,7^3s,E)-1^1,2^6-dimethyl-3-oxo-5^2,5^3-dihydro-1H,5^1H-9-oxa-4-aza-5(2,1)-benzo[d]imidazola-2(2,4)-pyridina-1(4,5)-pyrazola-7(1,3)-cyclobutanacyclononaphane-5^6-yl)piperazin-1-yl)piperidin-1-yl)-6-ethylpyridin-2-yl)piperidine-2,6-dione]	37.8 nM	90.6%	–
Cc1cc2cc(n1)-c1cnn(C)c1OC[C@H]1C[C@@H](CN3/C(=N/C2=O)Nc2ccc(N4CCN(C5CCN(c6c(C)cc(C7CCC(=O)NC7=O)nc6C)CC5)CC4)cc23)C1 (stereo partly shown) [Example 141, 3-(5-(4-(4-((7^1s,7^3s,E)-1^1,2^6-dimethyl-3-oxo-5^2,5^3-dihydro-1^1H,5^1H-9-oxa-4-aza-5(2,1)-benzo[d]imidazola-2(2,4)-pyridina-1(4,5)-pyrazola-7(1,3)-cyclobutanacyclononaphane-5^6-yl)piperazin-1-yl)piperidin-1-yl)-4,6-dimethylpyridin-2-yl)piperidine-2,6-dione]	11.9 nM	85.1%	DC50 [3]: 0.7 nM; Dmax [3]: 40.4%
Cc1cc2cc(n1)-c1cnn(C)c1OC[C@H]1C[C@@H](CN3/C(=N/C2=O)Nc2ccc(N4CCN(C5CCN(c6cc(F)c(C7CCC(=O)NC7=O)nc6C)CC5)CC4)cc23)C1 (stereo partly shown) [Example 142, 3-(5-(4-(4-((7^1s,7^3s,E)-1^1,2^6-dimethyl-3-oxo-5^2,5^3-dihydro-1^1H,5^1H-9-oxa-4-aza-5(2,1)-benzo[d]imidazola-2(2,4)-pyridina-1(4,5)-pyrazola-7(1,3)-cyclobutanacyclononaphane-5^6-yl)piperazin-1-yl)piperidin-1-yl)-3-fluoro-6-methylpyridin-2-yl)piperidine-2,6-dione]	52.3 nM	76.2%	–
CCc1nc(C2CCC(=O)NC2=O)ccc1N1CCC(N2CC(N3CCN(c4ccc5c(c4)N4C[C@H]6C[C@@H](COc7c(cnn7C)-c7cc(cc(C)n7)C(=O)/N=C/4N5)C6)CC3)C2)CC1 (stereo partly shown) [Example 149, 3-(5-(4-(3-(4-((7^1s,7^3s,E)-1^1,2^6-dimethyl-3-oxo-5^2,5^3-dihydro-1^1H,5^1H-9-oxa-4-aza-5(2,1)-benzo[d]imidazola-2(2,4)-pyridina-1(4,5)-pyrazola-7(1,3)-cyclobutanacyclononaphane-5^6-yl)piperazin-1-yl)azetidin-1-yl)piperidin-1-yl)-6-ethylpyridin-2-yl)piperidine-2,6-dione]	16 nM	71.1%	DC50 [3]: 3.3 nM; Dmax [3]: 52.2%
Cc1cc2cc(n1)-c1cnn(C)c1OC[C@H]1C[C@@H](CN3/C(=N/C2=O)Nc2ccc(N4CCN(C5CN(CCc6c(C)cc(C7CCC(=O)NC7=O)nc6C)C5)CC4)cc23)C1 (stereo partly shown) [Example 150, 3-(5-(2-(3-(4-((7^1s,7^3s,E)-1^1,2^6-dimethyl-3-oxo-5^2,5^3-dihydro-1^1H,5^1H-9-oxa-4-aza-5(2,1)-benzo[d]imidazola-2(2,4)-pyridina-1(4,5)-pyrazola-7(1,3)-cyclobutanacyclononaphane-5^6-yl)piperazin-1-yl)azetidin-1-yl)ethyl)-4,6-dimethylpyridin-2-yl)piperidine-2,6-dione]	11.9 nM	73.5%	DC50 [3]: 3.5 nM; Dmax [3]: 51.9%

Further lines, with some results ahead:

DC50 [2]	Dmax [2]	Structure (SMILES)	further results
30.7 nM	88.9%	Cc1cc2cc(n1)-c1cnn(C)c1OC[C@H]1C[C@@H](CN3/C(=N/C2=O)Nc2ccc(N4C[C@H](C)N(C5CCN(c6ccc(C7CCC(=O)NC7=O)nc6C)CC5)C[C@@H]4C)cc23)C1 (stereo partly drawn) [Example 139, 3-(5-(4-((2S,5S)-4-((7^1s,7^3R,E)-1^1,2^6-dimethyl-3-oxo-5^2,5^3-dihydro-1^1H,5^1H-9-oxa-4-aza-5(2,1)-benzo[d]imidazola-2(2,4)-pyridina-1(4,5)-pyrazola-7(1,3)-cyclobutanacyclononaphane-5^6-yl)-2,5-dimethylpiperazin-1-yl)piperidin-1-yl)-6-methylpyridin-2-yl)piperidine-2,6-dione]	–
8.5 nM	75.8%	CCc1cc(C2CCC(=O)NC2=O)ncc1N1CCC(N2CC(N3CCN(c4ccc5c(c4)N4C[C@H]6C[C@@H](COc7c(cnn7C)-c7cc(cc(C)n7)C(=O)/N=C/4N5)C6)CC3)C2)CC1 (stereo partly shown) [Example 143, 3-(5-(4-(3-(4-((7^1s,7^3s,E)-1^1,2^6-dimethyl-3-oxo-5^2,5^3-dihydro-1^1H,5^1H-9-oxa-4-aza-5(2,1)-benzo[d]imidazola-2(2,4)-pyridina-1(4,5)-pyrazola-7(1,3)-cyclobutanacyclononaphane-5^6-yl)piperazin-1-yl)azetidin-1-yl)piperidin-1-yl)-4-ethylpyridin-2-yl)piperidine-2,6-dione]	–
3 nM	80%	Cc1cc2cc(n1)-c1cnn(C)c1OC[C@H]1C[C@@H](CN3/C(=N/C2=O)Nc2ccc(N4CCN(C5CN(C6CCN(c7cc(F)c([C@H]8CCC(=O)NC8=O)c(F)c7)CC6)C5)C[C@H]4C)cc23)C1 [Example 148, (R)-3-(4-(4-(3-((R)-4-((7^1s,7^3S,E)-1^1,2^6-dimethyl-3-oxo-5^2,5^3-dihydro-1^1H,5^1H-9-oxa-4-aza-5(2,1)-benzo[d]imidazola-2(2,4)-pyridina-1(4,5)-pyrazola-7(1,3)-cyclobutanacyclononaphane-5^6-yl)-3-methylpiperazin-1-yl)azetidin-1-yl)piperidin-1-yl)-2,6-difluorophenyl)piperidine-2,6-dione]	–
